According to patent US20250075041A1, “COMPOSITIONS FOR SALTWATER-STABLE HYDROGEL ADHESIVES AND METHODS OF USE THEREOF” (Washington University, priority 2023, published 2025):

Test: Solubility of copolymers and monomer
Type: physicochemical

Nb-TEG-ZnTPP [compound 22]
solubility in H2O: not soluble in H2O
